Patent US11590093B2, “Kit, composition, and combination therapy for fragile X syndrome” (priority 2018, dated 2023)
Entries after “also recorded” stand apart in the source; their conditions may differ.

Tests used:
Settings in all cases: osmotic minipumps s.c. 15 days, sulindac 5 mg/kg, metoprolol 10 mg/kg, ibudilast 3 mg/kg, sertraline 1 mg/kg, quercetin 1 mg/kg (100 mg/kg in combination), cannabidiol 5 mg/kg
Fmr1 KO2 mice [1] = assay: Open field (hyperactivity, locomotor activity); assay type: in vivo
From the text: (§1) The Fmr1 KO2 it is both, protein and mRNA null. In this study we used Fmr1 KO2 and wild-type (WT) littermates generated on a C57BL/6J background and repeatedly backcrossed onto a C57BL/6J background for more than eight generations.
(§2) There were four treatment groups per compound/compound combination in the study with 10 male mice used per treatment group (all at 8 weeks of age): Group 1: Fmr1 KO2 mice treated with vehicle (Fmr1 KO2-V), Group 2: wild-type littermate mice treated with vehicle (WT-V), Group 3: Fmr1 KO2 mice treated with compounds (Fmr1 KO—[name of drug(s)]) and Group 4: wild-type littermate mice treated with compounds (WT—[name of drug(s)]).
The open-field apparatus was used to test hyperactivity. The apparatus was a gray PVC-enclosed arena […] divided into a 10×10 cm grid. Mice were brought to the experimental room 5-20 min before testing. A mouse was placed into a corner square facing the corner and observed for 3 min. The number of squares entered by the whole body (locomotor activity) were counted. The movement of the mouse around the field was recorded with a video tracking device for 3 min (version NT4.0, Viewpoint).

Fmr1 KO2 mice [2] = tested on: Fmr1 KO2 mice
From the text: as §1, §2
The test was performed in individual cages. Normal bedding covered the floor to a depth of 0.5 cm. Each cage was supplied with a “Nestlet,” a 5 cm square of pressed cotton batting (Ancare). Mice were placed individually into the nesting cages 1 hr. before the dark phase, and the results were assessed the next morning. Nest building was scored on a 5 point scale.
Score 1: The Nestlet was largely untouched (>90% intact).
Score 2: The Nestlet was partially torn up (50-90% remaining intact).
Score 3: The Nestlet was mostly shredded but often there was no identifiable nest site: <50% of the Nestlet […]

Fmr1 KO2 mice [3] = assay: Social interaction, three-chambered sociability task; assay type: in vivo
Method: In the three-chambered sociability task, a subject mouse was evaluated for its exploration of a novel social stimulus (novel mouse). The three-chambered social approach task monitors direct social approach behaviors when a subject mouse is presented with the choice of spending time with either a novel mouse or an empty cup. Sociability is defined as the subject mouse spending more time in the chamber containing the mouse than in the empty chamber. Preference for social novelty is defined as spending more time in the chamber with the novel mouse. The apparatus is a rectangular three-chamber box, where each chamber measures 20 cm (length)×40.5 cm (width)×22 cm (height). Dividing walls are made from clear perplex, with small openings (10 cm width×5 cm height) that allow access into each chamber. The three chamber task was lit from below (10 lux). The mice were allowed to freely explore the three-chamber apparatus over three 10 min trials. During the trial one wire cup was placed upside down in one of the side chambers and a novel mouse was placed under another wire cup in the other side chamber (novel mouse stimulus), leaving the middle chamber empty. The location of the novel mouse across trials was counterbalanced to minimize any potential confound due to a preference for chamber location. The time spent exploring the novel mice was scored as exploration ratio.

Fmr1 KO2 mice [4] = tested on: Fmr1 KO2 mice; remark: listed apart in the source
From the text: as §1, §2
The dependent measure used in contextual fear conditioning was a freezing response following a pairing of an unconditioned stimulus (foot shock), with a conditioned stimulus, a particular context. Freezing is a species-specific response to fear, which has been defined as “absence of movement except for respiration”. This may last for seconds to minutes depending on the strength of the aversive stimulus, the number of presentations, and the degree of learning achieved by the subject. Testing involved placing the animal in a novel environment (dark chamber), providing an aversive stimulus (a 1-sec electric shock, 0.2 mA, to the paws), and then removing it.

Compound	Open field: hyperactivity (Fmr1 KO2 mice [1])	Nesting behavior (Fmr1 KO2 mice [2])	Sociability (exploration of novel mouse) (Fmr1 KO2 mice [3])	Sociability (exploration of novel mouse) (Fmr1 KO2 mice [3]; listed as Sulindac)	Contextual fear conditioning (learning and memory) (Fmr1 KO2 mice [4])
CC1=C(CC(=O)O)c2cc(F)ccc2/C1=C\c1ccc([S+](C)[O-])cc1 (stereo not drawn) [sulindac, (Z)-5-fluoro-2-methyl-1-[[p-(methylsulfinyl)phenyl]methylene]-1H-indene-3-acetic acid]	normalizes hyperactivity; also recorded: fully rescuing open field and nesting behavior	normalization in nesting behavior; also recorded: fully rescuing open field and nesting behavior	partially rescuing contextual fear conditioning and sociability; also recorded: neither sulindac nor ibudilast alone rescues sociability; also recorded: neither sulindac nor sertraline alone rescues sociability or fear conditioning	partially improved such impairment	ameliorates the Fmr1 KO deficit in learning and memory; also recorded: partially rescuing contextual fear conditioning and sociability; also recorded: neither sulindac nor sertraline alone rescues sociability or fear conditioning; also recorded: neither sulindac nor quercetin alone fully rescues fear conditioning
CN[C@H]1CC[C@@H](c2ccc(Cl)c(Cl)c2)c2ccccc21 [sertraline]	–	–	neither sulindac nor sertraline alone rescues sociability or fear conditioning	–	neither sulindac nor sertraline alone rescues sociability or fear conditioning
COCCc1ccc(OCC(O)CNC(C)C)cc1.O=C(O)C(O)C(O)C(=O)O (racemic) [metoprolol, (±) 1-(Isopropylamino)-3-[p-(β-methoxyethyl)phenoxy]-2-propanol (+)-tartrate salt]	normalized Fmr1 KO2 mice hyperactivity; also recorded: normalize hyperactivity	partially rescued; also recorded: partially rescue nesting behavior and sociability	No significant difference was found in sociability; also recorded: partially rescue nesting behavior and sociability	–	fails to improve the learning deficits
O=c1c(O)c(-c2ccc(O)c(O)c2)oc2cc(O)cc(O)c12 [quercetin]	–	–	–	–	neither sulindac nor quercetin alone fully rescues fear conditioning
